Data on one molecule can be found in US6603057B1, “Heterogenous and homogeneous mouse variants lacking sno gene” (Japan Science and Technology Corporation, priority 1999, dated 2003).

SMILES strings stand for the structures.

This data set concerns wild type and sno^+/− mice. Description: Tumor susceptibility: survival after weekly carcinogen DMBA treatment. It is filed as in vivo, mouse. To be noted: DMBA weekly to dorsal surface, observation period of 80 days. Here is the method:
In the next experiment, in order to compare the tumor susceptibility of wild type and sno^+/− mice, the carcinogen 9,10-dimethyl-1,2-benzanthracene (DMBA) was administered every week. […] The major tumor type observed was malignant lymphomas, and fibromas were also found at a lower frequency. Lymphomas in sno^+/− mice were aggressive metastatic malignancies, and generated tumors in the thymus glands [refer to FIGS. 4(b) and (c)]. The fact that these originated from T-cells is due to the tumor cells homogeneously expressing the TCRαβ markers, but not the IgM marker [refer to FIGS. 4(d) and (e)].
DMBA treatments were initiated from the beginning at postnatal day 2-5 and continuing weekly thereafter by administering 50 μl of a solution containing DMBA 1.25 mg per ml acetone to the dorsal surface. Mice were monitored regularly and killed when overall health condition was deteriorated.
At first, 8-10 mice in each cohort were used for collecting histopathological informations, subsequently, the site of tumor and the site of metastatic organ were detected and specified by detailed pathological analysis.

On to `Cc1c2ccccc2c(C)c2c1ccc1ccccc12` [DMBA, 9,10-dimethyl-1,2-benzanthracene], for which the survived this treatment runs as follows: (sno^+/− female mice (n=20)) 30%; (sno^+/− male mice (n=20)) 50%. For the same molecule, under “wild-type mice (n=40)”, the “survival under this treatment” value was “most of the wild-type mice (n=40) survived”.
